For 37 compounds, IC50 results are on record in patent publication US20130184222A1, “[…] ACTIVE COMPOSITIONS AND THEIR METHODS OF USE” (AGIOS PHARMACEUTICALS, INC, priority 2010, published 2013).

pIC50: −log10 of the molar value.

One assay deals with IDH1 R132H (Homo sapiens, UniProt O75874, R132H). Kind of assay: In vitro assay for IDH1 R132H inhibitors (NADPH/aKG, resazurin detection). Type of assay: biochemical. The following applies: Table 4B; 0.2 μg/ml IDH1 R132H, 50 minutes at room temperature; read-out: IC50, IDH1 R132H Inhibition. In a few lines: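 Reaction ran 50 min at room temperature in Tris pH 7.5 buffer with 150 mM NaCl, 10 mM MgCl2 and 0.03% BSA. Mix concentrations were 0.2 μg/ml mutant enzyme, 8 uM NADPH and 2 mM aKG. Detection added 30 μM resazurin, with resorufin fluorescence (Ex544/Em590) measured 5 min later.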
For orientation: Resazurin is reduced to fluorescent resorufin, in cell work by metabolically active cells.

Another assay deals with U87MG cells. Nature of the assay: Cellular assay: inhibition of 2-HG production in U87MG cells (LC-MS, 48 hours). Particulars: Homo sapiens, U-87 MG, 2-HG in media by LC-MS. Type of assay: cell-based. The procedure: (§1) Cells (HT1080 or U87MG) were grown in T125 flasks in DMEM containing 10% FBS, 1× penicillin/streptomycin and 500 ug/mL G418 (present in U87MG cells only). They were harvested by trypsin and seeded into 96 well white bottom plates at a density of 5000 cell/well in 100 ul/well in DMEM with 10% FBS. No cells were placed in columns 1 and 12. Cells were incubated overnight at 37° C. in 5% CO2. The next day test compounds were made up at 2× the final concentration and 100 ul were added to each cell well. The final concentration of DMSO was 0.2% and the DMSO control wells were plated in row G. The plates were then placed in the incubator for 48 hours. At 48 hours, 100 ul of media was removed from each well and analyzed by LC-MS for 2-HG concentrations. The cell plate was placed back in the incubator for another 24 hours. At 72 hours post compound addition, 10 mL/plate of Promega Cell Titer Glo reagent was thawed and mixed. The cell plate was removed from the incubator and allowed to equilibrate to room temperature. Then 100 ul of Promega Cell Titer Glo reagent was added to each well of media. The cell plate was then placed on an orbital shaker for 10 minutes and then allowed to sit at room temperature for 20 minutes. The plate was then read for luminescence with an integration time of 500 ms.

A further assay has as its system HT1080 cells. Kind of assay: Cellular assay: inhibition of 2-HG production in HT1080 cells (LC-MS, 48 hours). Type of assay: cell-based. Particulars: Homo sapiens, HT-1080, 2-HG in media by LC-MS. How it is done:
as §1

IDH1 R132H, sequence (O75874 whole entry R132H): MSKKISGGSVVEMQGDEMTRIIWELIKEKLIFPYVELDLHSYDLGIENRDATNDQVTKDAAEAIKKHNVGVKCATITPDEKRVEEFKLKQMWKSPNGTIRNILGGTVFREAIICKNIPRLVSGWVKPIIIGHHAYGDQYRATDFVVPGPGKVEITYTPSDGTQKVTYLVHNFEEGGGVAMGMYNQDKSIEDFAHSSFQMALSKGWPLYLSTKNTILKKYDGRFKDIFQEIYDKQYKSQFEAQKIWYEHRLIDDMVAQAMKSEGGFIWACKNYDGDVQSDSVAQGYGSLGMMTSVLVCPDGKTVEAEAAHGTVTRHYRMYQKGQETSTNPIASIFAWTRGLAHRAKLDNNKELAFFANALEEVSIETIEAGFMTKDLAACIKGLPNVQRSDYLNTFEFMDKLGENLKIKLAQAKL

Turning to `Cc1ccccc1C(C(=O)NC1CCCCC1)N(C(=O)Cc1c[nH]c2ncccc12)c1cccc(F)c1` (stereo not drawn) [Compound 203], the pIC50 (usually the IC50 on a negative log10 scale, so that one unit is a factor of ten) at IDH1 R132H was at least 7.00; in the assay on U87MG cells, at least 6.60; in the assay on HT1080 cells, at least 6.60.
Turning to `Cc1ccccc1C(C(=O)NC1CCCCC1)N(Cc1cccs1)C(=O)Cn1ccnc1` (stereo not drawn) [Compound 204, N-cyclohexyl-2-[(2-imidazol-1-yl-acetyl)-thiophen-2-ylmethyl-amino]-2-o-tolyl-acetamide], the pIC50 on IDH1 R132H was 6.00 to 7.00; in the assay with U87MG cells, 6.00 to 6.60; in the assay on HT1080 cells it was 5.30 to 6.00.
For `Cc1ccccc1C(C(=O)NC1CCCCC1)N(Cc1nccs1)C(=O)Cn1nnc2ccccc21` (stereo not drawn) [Compound 205] the same measures were 6.00 to 7.00, 5.30 to 6.00 and 5.30 to 6.00.
As to `Cc1ccccc1C(C(=O)NC1CCCCC1)N(Cc1cccs1)C(=O)CN1Cc2cccnc2C1` (stereo not drawn) [Compound 206], the pIC50 on IDH1 R132H is 6.00 to 7.00; in the assay on U87MG cells, 5.30 to 6.00; in the assay on HT1080 cells, 5.30 to 6.00.
For the compound `COC(=O)N1CCN(CC(=O)N(Cc2cccs2)C(C(=O)NC2CCCCC2)c2ccccc2C)CC1` (stereo not drawn) [Compound 208], the pIC50 on IDH1 R132H was 6.00 to 7.00; with U87MG cells, 5.30 to 6.00; in the assay with HT1080 cells, 5.30 to 6.00.
Consider `Cc1ccccc1C(C(=O)NC1CCCCC1)N(C(=O)CN1Cc2cccnc2C1)c1cccc(F)c1` (stereo not drawn) [Compound 209], for which the results for the pIC50 on IDH1 R132H, with U87MG cells and in the assay with HT1080 cells were 6.00 to 7.00, 6.00 to 6.60 and at least 6.60, respectively.
For `COc1ccc(NCC(=O)N(c2cccc(F)c2)C(C(=O)NC2CCCCC2)c2ccccc2C)cc1` (stereo not drawn) [Compound 210] the same measures were at least 7.00, 5.30 to 6.00 and 5.30 to 6.00.
As to `Cc1ccccc1C(C(=O)NCC1CCCCC1)N(C(=O)Cc1cccs1)c1cccc(F)c1` (stereo not drawn) [Compound 211], the pIC50 at IDH1 R132H is 6.00 to 7.00; with U87MG cells it was 5.30 to 6.00; with HT1080 cells it was 5.30 to 6.00.
Consider `CC(=O)Oc1ccc(CC(=O)N(c2cccc(F)c2)C(C(=O)NC2CCCCC2)c2ccccc2C)cc1` (stereo not drawn) [Compound 212], for which the pIC50 was at least 7.00 at IDH1 R132H, at least 6.60 with U87MG cells and at least 6.60 with HT1080 cells.
With `Cc1ccccc1C(C(=O)NC1CCCCC1)N(Cc1cccs1)C(=O)Cc1c[nH]c2ncccc12` (stereo not drawn) [Compound 213], the pIC50 at IDH1 R132H is at least 7.00; in the assay on U87MG cells, 6.00 to 6.60; with HT1080 cells, 6.00 to 6.60.
Turning to `CC(=O)Oc1ccc(C(=O)N(c2cccc(F)c2)C(C(=O)NC2CCCCC2)c2ccccc2C)cc1` (stereo not drawn) [Compound 215, Acetic acid 4-[(cyclohexylcarbamoyl-o-tolyl-methyl)-(3-fluoro-phenyl)-carbamoyl]-phenyl ester], the results for the pIC50 at IDH1 R132H, in the assay with U87MG cells and with HT1080 cells were 6.00 to 7.00, 6.00 to 6.60 and 6.00 to 6.60, respectively.
For `Cc1ccccc1C(C(=O)NC1CCCCC1)N(C(=O)c1ccc(O)cc1)c1cccc(F)c1` (stereo not drawn) [Compound 216], the pIC50 is 6.00 to 7.00 at IDH1 R132H, 6.00 to 6.60 in the assay on U87MG cells and 5.30 to 6.00 in the assay on HT1080 cells.
For `Cc1ccccc1C(C(=O)NC1CCCCC1)N(C(=O)Cc1ccc(O)cc1)c1cccc(F)c1` (stereo not drawn) [Compound 217, N-Cyclohexyl-2-{(3-fluoro-phenyl)-[2-(4-hydroxy-phenyl)-acetyl]-amino}-2-o-tolyl-acetamide] the same measures were at least 7.00, at least 6.60 and at least 6.60.
For `COc1ccccc1NCC(=O)N(c1cccc(F)c1)C(C(=O)NC1CCCCC1)c1ccccc1C` (stereo not drawn) [Compound 218] the same measures were at least 7.00, 6.00 to 6.60 and 6.00 to 6.60.
As for `COc1ccc(CNCC(=O)N(c2cccc(F)c2)C(C(=O)NC2CCCCC2)c2ccccc2C)cc1` (stereo not drawn) [Compound 219], the pIC50 at IDH1 R132H was 6.00 to 7.00; with U87MG cells, 5.30 to 6.00; in the assay on HT1080 cells, 5.30 to 6.00.
Regarding `COc1ccccc1CNCC(=O)N(c1cccc(F)c1)C(C(=O)NC1CCCCC1)c1ccccc1C` (stereo not drawn) [Compound 220], the negative logarithm of the IC50 (pIC50) at IDH1 R132H was 6.00 to 7.00; in the assay with U87MG cells, 5.30 to 6.00; in the assay on HT1080 cells, 5.30 to 6.00.
Regarding `COc1cccc(CNCC(=O)N(c2cccc(F)c2)C(C(=O)NC2CCCCC2)c2ccccc2C)c1` (stereo not drawn) [Compound 221], the pIC50 was 6.00 to 7.00 at IDH1 R132H, 5.30 to 6.00 in the assay with U87MG cells and 5.30 to 6.00 in the assay with HT1080 cells.
For the compound `Cc1ccccc1C(C(=O)NC1CCCCC1)N(C(=O)COCc1ccccc1F)c1cccc(F)c1` (stereo not drawn) [Compound 222], the pIC50 at IDH1 R132H is 6.00 to 7.00; in the assay on U87MG cells, 5.30 to 6.00; in the assay with HT1080 cells it was 6.00 to 6.60.
Take `Cc1ccccc1C(C(=O)NC1CCCCC1)N(C(=O)Cn1ccnc1C)c1cccc(-c2cnn(C)c2)c1` (stereo not drawn) [Compound 223]: the pIC50 on IDH1 R132H was 6.00 to 7.00; in the assay with U87MG cells, at least 6.60; in the assay with HT1080 cells, 6.00 to 6.60.
For `Cc1ccccc1C(C(=O)NC1CCCCC1)N(C(=O)Cn1c(C)nc2ccccc21)c1ccn(C)n1` (stereo not drawn) [Compound 224] the same measures were 6.00 to 7.00, 6.00 to 6.60 and 6.00 to 6.60.
For `Cc1ccccc1C(C(=O)NC1CCCCC1)N(C(=O)Cn1ccnc1C)c1cccc(NC(=O)OC(C)(C)C)c1` (stereo not drawn) [Compound 225] the same measures were 6.00 to 7.00, at least 6.60 and 5.30 to 6.00.
For `Cc1ccccc1C(C(=O)NC1CCCCC1)N(C(=O)Cn1ccnc1C)c1cccc(N)c1` (stereo not drawn) [Compound 226] the same measures were 6.00 to 7.00, at least 6.60 and 5.30 to 6.00.
As to `Cc1ccccc1C(C(=O)NC1CCCCC1)N(C(=O)CNc1ccc(C#N)cc1)c1cccc(F)c1` (stereo not drawn) [Compound 227], the pIC50 on IDH1 R132H is at least 7.00; in the assay on U87MG cells it was at least 6.60; with HT1080 cells it was at least 6.60.
As for `Cc1ccccc1C(C(=O)NC1CCCCC1)N(Cc1cccs1)C(=O)CNc1ccc(C#N)cc1` (stereo not drawn) [Compound 228], the values for the pIC50 on IDH1 R132H, in the assay on U87MG cells and with HT1080 cells were at least 7.00, 6.00 to 6.60 and 6.00 to 6.60, respectively.
`Cc1ccccc1C(C(=O)NC1CCCCC1)N(C(=O)COCc1ccncc1)c1cccc(F)c1` (stereo not drawn) [Compound 229]: the pIC50 is 6.00 to 7.00 at IDH1 R132H, 5.30 to 6.00 in the assay with U87MG cells and 6.00 to 6.60 with HT1080 cells.
`Cc1ccccc1C(C(=O)NC1CCCCC1)N(C(=O)COC1CCCC1)c1cccc(F)c1` (stereo not drawn) [Compound 230]: the figures for the pIC50 at IDH1 R132H, in the assay on U87MG cells and with HT1080 cells were 6.00 to 7.00, 5.30 to 6.00 and 5.30 to 6.00, respectively.
`Cc1ccccc1C(C(=O)NC1CCCCC1)N(C(=O)Cn1ccnc1C)c1cccc(N2CCOCC2)c1` (stereo not drawn) [Compound 231]: the figures for the pIC50 at IDH1 R132H, with U87MG cells and with HT1080 cells were 6.00 to 7.00, at least 6.60 and 5.30 to 6.00, respectively.
For `Cc1ccccc1C(C(=O)NC1CCCCC1)N(C(=O)Cn1ccnc1C)c1cccc(N2CCN(C(=O)OC(C)(C)C)CC2)c1` (stereo not drawn) [Compound 232] the same measures were 6.00 to 7.00, at least 6.60 and 5.30 to 6.00.
For `Cc1ccccc1C(C(=O)NC1CCCCC1)N(C(=O)COCc1cccnc1)c1cccc(F)c1` (stereo not drawn) [Compound 233] the same measures were 6.00 to 7.00, 5.30 to 6.00 and 6.00 to 6.60.
For `CC(=O)Nc1cccc(N(C(=O)Cn2ccnc2C)C(C(=O)NC2CCCCC2)c2ccccc2C)c1` (stereo not drawn) [Compound 236] the same measures were 6.00 to 7.00, 5.30 to 6.00 and below 5.30.
Turning to `Cc1ccccc1C(C(=O)NC1CCCCC1)N(C(=O)CNc1ccc(F)nc1)c1cccc(F)c1` (stereo not drawn) [Compound 237], the pIC50 was at least 7.00 on IDH1 R132H, 5.30 to 6.00 in the assay on U87MG cells and 6.00 to 6.60 with HT1080 cells.
Consider `Cc1ccccc1C(C(=O)NC1CCCCC1)N(C(=O)Cc1c[nH]c2ccccc12)c1ccn(C)n1` (stereo not drawn) [Compound 238], for which the pIC50 at IDH1 R132H was 6.00 to 7.00; with U87MG cells it was 5.30 to 6.00; with HT1080 cells, 6.00 to 6.60.
For `Cc1nccn1CC(=O)N(c1cccc(F)c1)[C@H](C(=O)NC1CCCCC1)c1ccccc1` [Compound 239] the same measures were 6.00 to 7.00, at least 6.60 and 6.00 to 6.60.
For `Cc1ccccc1C(C(=O)NC1CCCCC1)N(C(=O)Cn1ccc(F)cc1=N)c1cccc(F)c1` (stereo not drawn) [Compound 240] the same measures were at least 7.00, 5.30 to 6.00 and 6.00 to 6.60.
Turning to `COC(=O)Nc1cccc(N(C(=O)Cn2ccnc2C)C(C(=O)NC2CCCCC2)c2ccccc2C)c1` (stereo not drawn) [Compound 241], the pIC50 was 6.00 to 7.00 at IDH1 R132H, 6.00 to 6.60 in the assay with U87MG cells and 5.30 to 6.00 in the assay on HT1080 cells.
For `Cc1ccccc1C(C(=O)NC1CCCCC1)N(C(=O)Cc1cn(C)c2ccccc12)c1cccc(F)c1` (stereo not drawn) [Compound 243] the same measures were 6.00 to 7.00, 6.00 to 6.60 and 6.00 to 6.60.
For `Cc1ccccc1C(C(=O)NC1CCCCC1)N(C(=O)Cc1cn(C)c2ccccc12)c1ccn(C)n1` (stereo not drawn) [Compound 244] the same measures were 6.00 to 7.00, 5.30 to 6.00 and 6.00 to 6.60.
